In US20220031697A1, “Dose and regimen for an hdm2-p53 interaction inhibitor in hematological tumors” (Novartis AG, priority 2017, published 2022):
“And” between values parts separate entries of the source, which are not always exact repeats. Equal values may be shown once. Read-outs that look alike come from different tables or passages of the source.

Tested on: patients with hematological tumors
[1] = 1A 250 mg N=10, cut-off 15 Jan. 2018
[2] = 1B 120 mg N=23, cut-off 15 Jan. 2018
[3] = 2C 45 mg N=25, cut-off 15 Jan. 2018

From the text: Herein, data are disclosed from this multicenter, open-label, first-in-human Phase I study of HDM201 in patients with advanced TP53 wild-type (WT) leukemias.
The clinical study design allowed parallel exploration of the safety, tolerability, and clinical activity (efficacy) of two broad dosing strategies for HDM201 during dose escalation: intermittent high dose regimens (Regimen 1A and 1B) and extended low dose regimens (Regimen 2A and 2C).
This clinical study utilized a Bayesian logistic regression model (BLRM) to support dose escalation and estimate the MTD for HDM201. The BLRM enables incorporation of available prior information and updates the model parameters based upon the DLTs observed in the clinical study at varied doses in evaluable patients.

## COc1ncc(-c2nc3c(n2C(C)C)[C@H](c2ccc(Cl)cc2)N(c2cc(Cl)cn(C)c2=O)C3=O)c(OC)n1 [HDM201, (S)-5-(5-Chloro-1-methyl-2-oxo-1,2-dihydro-pyridin-3-yl)-6-(4-chloro-phenyl)-2-(2,4-dimethoxy-pyrimidin-5-yl)-1-isopropyl-5,6-dihydro-1H-pyrrolo[3,4-d]imidazol-4-one]
  Abdominal Discomfort, Grade 3/4: 0 n (%)
  Abdominal Pain Upper, Grade 3/4: 0 n (%)
  Abdominal Pain, Grade 3/4: 0 n (%)
  Amylase Increased, Grade 3/4: 0 n (%)
  Arthralgia, Grade 3/4: 0 n (%)
  Asthenia, Grade 3/4: 0 n (%)
  Atrial Fibrillation, Grade 3/4: 0 n (%)
  Atypical Pneumonia, Grade 3/4: 0 n (%)
  Balanitis Candida, Grade 3/4: 0 n (%)
  Blood Alkaline Phosphatase Increased, Grade 3/4: 0 n (%)
  Blood Bilirubin Increased, Grade 3/4: 0 n (%)
  Blood Phosphorus Increased, Grade 3/4: 0 n (%)
  Cardiac Failure, Grade 3/4: 0 n (%)
  Conjunctival Haemorrhage, Grade 3/4: 0 n (%)
  Constipation, Grade 3/4: 0 n (%)
  Cough, Grade 3/4: 0 n (%)
  Cystitis Viral, Grade 3/4: 0 n (%)
  Cytomegalovirus Infection, Grade 3/4: 0 n (%)
  Decreased Appetite, Grade 3/4: 0 n (%)
  Diarrhoea, Grade 3/4: 0 n (%)
  Dyspepsia, Grade 3/4: 0 n (%)
  Epistaxis, Grade 3/4: 0 n (%)
  Fatigue, Grade 3/4: 0 n (%)
  General Physical Health Deterioration, Grade 3/4: 0 n (%)
  Gingival Bleeding, Grade 3/4: 0 n (%)
  Graft Versus Host Disease, Grade 3/4: 0 n (%)
  Haemoglobin Decreased, Grade 3/4: 0 n (%)
  Headache, Grade 3/4: 0 n (%)
  Hyperbilirubinaemia, Grade 3/4: 0 n (%)
  Hyperglycaemia, Grade 3/4: 0 n (%)
  Hyperphosphataemia, Grade 3/4: 0 n (%)
  Hyperuricaemia, All Grades: 2 n (%) and 2 (33.3) n (%) and 1 (14.3) n (%)
  Hypoalbuminaemia, Grade 3/4: 0 n (%)
  Hypocalcaemia, Grade 3/4: 0 n (%)
  Hypokalaemia, Grade 3/4: 0 n (%)
  Hypomagnesaemia, Grade 3/4: 0 n (%)
  Hyponatraemia, Grade 3/4: 0 n (%)
  Hypotension, Grade 3/4: 0 n (%)
  Infective Glossitis, Grade 3/4: 0 n (%)
  Influenza Like Illness, Grade 3/4: 0 n (%)
  Iron Overload, Grade 3/4: 0 n (%)
  Lip Oedema, Grade 3/4: 0 n (%)
  Malaise, Grade 3/4: 0 n (%)
  Mouth Haemorrhage, Grade 3/4: 0 n (%)
  Nausea, Grade 3/4: 0 n (%)
  Oedema Peripheral, Grade 3/4: 0 n (%)
  Oedema, Grade 3/4: 0 n (%)
  Oral Disorder, Grade 3/4: 0 n (%)
  Pain In Extremity, Grade 3/4: 0 n (%)
  Pneumonia, Grade 3/4: 0 n (%)
  Pollakiuria, Grade 3/4: 0 n (%)
  Pyrexia, Grade 3/4: 0 n (%)
  Rash Erythematous, Grade 3/4: 0 n (%)
  Rash Papular, Grade 3/4: 0 n (%)
  Rash, Grade 3/4: 0 n (%)
  Rectal Haemorrhage, Grade 3/4: 0 n (%)
  Skin Exfoliation, Grade 3/4: 0 n (%)
  Vomiting, Grade 3/4: 0 n (%)
  Weight Decreased, Grade 3/4: 0 n (%)
[1]
  Amylase Increased, All Grades: 1 (10.0) n (%)
  Amylase Increased, Grade 3/4: 1 (10.0) n (%)
  Anemia, All Grades: 5 (50.0) n (%)
  Anemia, Grade 3/4: 3 (30.0) n (%)
  Aspiration, All Grades: 1 (10.0) n (%)
  Aspiration, Grade 3/4: 1 (10.0) n (%)
  Blood Creatinine Increased, All Grades: 2 (20.0) n (%)
  Blood Creatinine Increased, Grade 3/4: 0 n (%)
  Blood Uric Acid Increased, All Grades: 2 (20.0) n (%)
  Blood Uric Acid Increased, Grade 3/4: 1 (10.0) n (%)
  Diarrhoea, All Grades: 3 (30.0) n (%)
  Diarrhoea, Grade 3/4: 0 n (%)
  Febrile Neutropenia, All Grades: 2 (20.0) n (%)
  Febrile Neutropenia, Grade 3/4: 2 (20.0) n (%)
  Hyperkalaemia, All Grades: 2 (20.0) n (%)
  Hyperkalaemia, Grade 3/4: 1 (10.0) n (%)
  Hyperuricaemia, All Grades: 1 (10.0) n (%)
  Hyperuricaemia, Grade 3/4: 1 (10.0) n (%)
  Hypocalcaemia, All Grades: 3 (30.0) n (%)
  Hypocalcaemia, Grade 3/4: 1 (10.0) n (%)
  Hypomagnesaemia, All Grades: 2 (20.0) n (%)
  Hypomagnesaemia, Grade 3/4: 0 n (%)
  Leukopenia, All Grades: 1 (10.0) n (%)
  Leukopenia, Grade 3/4: 1 (10.0) n (%)
  Megakaryocytes Abnormal, All Grades: 1 (10.0) n (%)
  Megakaryocytes Abnormal, Grade 3/4: 1 (10.0) n (%)
  Nausea, All Grades: 3 (30.0) n (%)
  Nausea, Grade 3/4: 0 n (%)
  Neutropenia, All Grades: 4 (40.0) n (%)
  Neutropenia, Grade 3/4: 3 (30.0) n (%)
  Thrombocytopenia, All Grades: 5 (50.0) n (%)
  Thrombocytopenia, Grade 3/4: 5 (50.0) n (%)
  Tumour Lysis Syndrome, All Grades: 5 (50.0) n (%)
  Tumour Lysis Syndrome, Grade 3/4: 5 (50.0) n (%)
1A (d1 Q3W) 250 mg, 3 evaluable patients
  Cycle 1 DLTs: 0
1A (d1 Q3W) 350 mg, 4 evaluable patients
  Cycle 1 DLTs: 0
1A (d1 Q3W) 400 mg, 9 evaluable patients
  Cycle 1 DLTs: 4
1A total N = 16
  Cycle 1 DLTs: 4:
[2]
  Anemia, All Grades: 7 (30.4) n (%)
  Anemia, Grade 3/4: 2 (8.7) n (%)
  Asthenia, All Grades: 3 (13.0) n (%)
  Asthenia, Grade 3/4: 1 (4.3) n (%)
  Febrile Bone Marrow Aplasia, All Grades: 3 (13.0) n (%)
  Febrile Bone Marrow Aplasia, Grade 3/4: 2 (8.7) n (%)
  Leukopenia, All Grades: 3 (13.0) n (%)
  Leukopenia, Grade 3/4: 3 (13.0) n (%)
  Nausea, All Grades: 6 (26.1) n (%)
  Nausea, Grade 3/4: 0 n (%)
  Neutropenia, All Grades: 4 (17.4) n (%)
  Neutropenia, Grade 3/4: 4 (17.4) n (%)
  Thrombocytopenia, All Grades: 10 (43.5) n (%)
  Thrombocytopenia, Grade 3/4: 10 (43.5) n (%)
  Tumour Lysis Syndrome, All Grades: 4 (17.4) n (%)
  Tumour Lysis Syndrome, Grade 3/4: 3 (13.0) n (%)
  Vomiting, All Grades: 3 (13.0) n (%)
  Vomiting, Grade 3/4: 0 n (%)
1B (d1, d8 Q4W) 150 mg, 6 evaluable patients
  Cycle 1 DLTs: 1
1B total N = 6
  Cycle 1 DLT events: Acute Kidney
  Cycle 1 DLTs: 1:
2A (2 weeks on/2 weeks off) 20 mg, 3 evaluable patients
  Cycle 1 DLTs: 0
2A (2 weeks on/2 weeks off) 30 mg, 3 evaluable patients
  Cycle 1 DLTs: 0
2A total N = 6
  Cycle 1 DLTs: 0
[3]
  Alopecia, All Grades: 3 (12.0) n (%)
  Alopecia, Grade 3/4: 0 n (%)
  Anemia, All Grades: 13 (52.0) n (%)
  Anemia, Grade 3/4: 9 (36.0) n (%)
  Decreased Appetite, All Grades: 6 (24.0) n (%)
  Decreased Appetite, Grade 3/4: 0 n (%)
  Fatigue, All Grades: 5 (20.0) n (%)
  Fatigue, Grade 3/4: 2 (8.0) n (%)
  Febrile Neutropenia, All Grades: 8 (32.0) n (%)
  Febrile Neutropenia, Grade 3/4: 8 (32.0) n (%)
  Leukopenia, All Grades: 5 (20.0) n (%)
  Leukopenia, Grade 3/4: 5 (20.0) n (%)
  Nausea, All Grades: 12 (48.0) n (%)
  Nausea, Grade 3/4: 0 n (%)
  Neutropenia, All Grades: 11 (44.0) n (%)
  Neutropenia, Grade 3/4: 10 (40.0) n (%)
  Thrombocytopenia, All Grades: 13 (52.0) n (%)
  Thrombocytopenia, Grade 3/4: 12 (48.0) n (%)
  Tumour Lysis Syndrome, All Grades: 3 (12.0) n (%)
  Tumour Lysis Syndrome, Grade 3/4: 3 (12.0) n (%)
  Vomiting, All Grades: 6 (24.0) n (%)
  Vomiting, Grade 3/4: 0 n (%)
2C (1 week on/3 weeks off) 45 mg, 8 evaluable patients
  Cycle 1 DLTs: 1
2C total N = 8
  Cycle 1 DLTs: 1
Regimen 2C 45 mg
  Patients with DLT: 12.5%
Regimen 2C 45 mg, 8 patients
  Anemia, CTCAE grade 3/4 related to study drug: 37.5%
  Febrile neutropenia, CTCAE grade 3/4 related to study drug: 37.5%
  Neutropenia, CTCAE grade 3/4 related to study drug: 37.5%
  Patients with at least one CTCAE grade 3/4 AE related to study drug: 62.5%
  Thrombocytopenia, CTCAE grade 3/4 related to study drug: 62.5%
  Treatment-related anemia, all grades: 62.5%
  Treatment-related decreased appetite, all grades: 50.0%
  Treatment-related febrile neutropenia, all grades: 37.5%
  Treatment-related nausea, all grades: 37.5%
  Treatment-related neutropenia, all grades: 50.0%
  Treatment-related thrombocytopenia, all grades: 62.5%
